For experiment [1], the target named is Xanthine dehydrogenase/oxidase (Homo sapiens, UniProt P47989). The experiment can be described thus: Inhibition of XOD.
The target of experiment [2] is T1, Tyrosine-protein phosphatase non-receptor type 1 (Homo sapiens, UniProt P18031).
T1 sequence (P18031 whole entry): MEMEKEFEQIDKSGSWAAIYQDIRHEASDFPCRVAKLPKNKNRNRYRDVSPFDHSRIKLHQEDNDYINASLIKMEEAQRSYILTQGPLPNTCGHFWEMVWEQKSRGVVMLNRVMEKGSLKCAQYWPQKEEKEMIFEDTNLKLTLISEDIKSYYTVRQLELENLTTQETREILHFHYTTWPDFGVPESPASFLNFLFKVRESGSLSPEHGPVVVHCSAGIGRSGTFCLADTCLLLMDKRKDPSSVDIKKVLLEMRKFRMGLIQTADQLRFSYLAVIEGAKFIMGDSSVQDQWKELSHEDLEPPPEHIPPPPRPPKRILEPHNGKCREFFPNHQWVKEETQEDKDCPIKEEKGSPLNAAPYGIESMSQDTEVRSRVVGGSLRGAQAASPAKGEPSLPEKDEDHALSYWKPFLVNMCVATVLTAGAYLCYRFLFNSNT
In words: Inhibition of human recombinant PTP1B after 10 mins.

The next experiment concerns HepG2. In words: Cytotoxicity against human HepG2 cells by SRB assay. Type of experiment: functional.

Xanthine dehydrogenase/oxidase, sequence (P47989 whole entry): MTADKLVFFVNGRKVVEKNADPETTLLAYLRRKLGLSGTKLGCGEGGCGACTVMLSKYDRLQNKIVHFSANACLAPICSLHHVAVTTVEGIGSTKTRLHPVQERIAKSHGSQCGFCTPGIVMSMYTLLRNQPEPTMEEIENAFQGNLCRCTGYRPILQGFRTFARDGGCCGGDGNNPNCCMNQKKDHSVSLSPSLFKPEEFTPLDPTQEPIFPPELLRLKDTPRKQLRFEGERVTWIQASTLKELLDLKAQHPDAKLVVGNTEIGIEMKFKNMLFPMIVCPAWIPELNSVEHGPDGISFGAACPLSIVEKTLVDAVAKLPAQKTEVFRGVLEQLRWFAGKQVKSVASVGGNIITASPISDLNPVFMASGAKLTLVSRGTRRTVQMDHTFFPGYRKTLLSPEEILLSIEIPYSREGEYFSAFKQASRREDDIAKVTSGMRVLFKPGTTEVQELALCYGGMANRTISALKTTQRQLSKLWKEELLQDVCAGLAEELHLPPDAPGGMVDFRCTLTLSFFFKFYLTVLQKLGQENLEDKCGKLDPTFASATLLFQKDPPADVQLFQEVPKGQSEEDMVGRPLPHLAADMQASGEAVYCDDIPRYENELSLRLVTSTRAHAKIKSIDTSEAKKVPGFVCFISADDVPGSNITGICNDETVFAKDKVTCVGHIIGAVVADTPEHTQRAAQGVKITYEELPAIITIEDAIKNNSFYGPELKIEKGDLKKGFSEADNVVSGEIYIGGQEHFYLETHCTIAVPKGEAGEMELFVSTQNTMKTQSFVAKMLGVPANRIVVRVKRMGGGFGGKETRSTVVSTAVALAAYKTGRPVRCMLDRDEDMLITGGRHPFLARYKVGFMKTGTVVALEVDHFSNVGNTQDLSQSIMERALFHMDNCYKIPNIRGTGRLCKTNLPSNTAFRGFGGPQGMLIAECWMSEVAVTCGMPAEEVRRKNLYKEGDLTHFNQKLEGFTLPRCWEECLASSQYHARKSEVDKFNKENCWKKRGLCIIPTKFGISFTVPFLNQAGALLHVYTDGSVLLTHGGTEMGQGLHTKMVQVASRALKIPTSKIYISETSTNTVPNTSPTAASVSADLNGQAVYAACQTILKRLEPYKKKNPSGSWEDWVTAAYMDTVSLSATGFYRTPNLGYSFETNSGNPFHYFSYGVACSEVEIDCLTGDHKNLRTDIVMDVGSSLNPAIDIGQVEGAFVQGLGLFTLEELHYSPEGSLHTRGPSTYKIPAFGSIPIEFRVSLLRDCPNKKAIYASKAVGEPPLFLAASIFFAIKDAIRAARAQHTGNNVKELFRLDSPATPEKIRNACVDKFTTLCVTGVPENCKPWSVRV

In general, IC50 refers to the concentration at which inhibition is half-maximal. Regarding `COc1cc2cc(-c3cc4cc(O)c(O)cc4oc3=O)c(=O)oc2c(OC)c1O` [ARTEMINORIN C], 7.71 µM corresponded to half-maximal inhibition in experiment [1] (IC50). Regarding `O=C(O)/C=C/c1ccc(O)c(O)c1` [CAFFEIC ACID], the IC50 in experiment [2] was 3.06 µM. In general, GI50 refers to the concentration at which growth is held to half of that of the control. Low values mean more potent growth inhibition, high ones less potent growth inhibition. With `CCOC(=O)/C=C/c1ccc(O)c(O)c1` [ETHYL CAFFEATE], halving of growth in the experiment with HepG2 (GI50) required 17.2 µM.

In turn, `CC(=O)O[C@H]1C(=O)[C@@]2(C)[C@H]([C@H](OC(=O)c3ccccc3)[C@]3(O)C[C@H](OC(=O)[C@H](O)[C@@H](NC(=O)c4ccccc4)c4ccccc4)C(C)=C1C3(C)C)[C@]1(OC(C)=O)CO[C@@H]1C[C@@H]2O` [PACLITAXEL] displayed a GI50 with HepG2 of 0.059 µM. Regarding `O=c1cc(-c2ccc(O)c(O)c2)oc2cc(O)cc(O)c12` [LUTEOLIN], in experiment [1], the IC50 worked out at 11.5 µM.

For the origin of these results see ChEMBL document CHEMBL1153774, “Chemical constituents from the aerial parts of Artemisia minor” (J Nat Prod, 2009).
